Experimental data: PubChem BioAssay AID488788 (Broad Institute, 2010)
Inconclusive results are not listed. Calls of active or inactive are those of the source. The rule behind the calls is not given here.

target: CAAX prenyl protease 2 (Saccharomyces cerevisiae (strain ATCC 204508 / S288c)) (UniProt Q03530); experiment: yeast Rce1 CAAX endoprotease inhibition – biochemical, plate reader, cherry-pick, dose response (AID 488788); details: Rce1p enzyme activity
Sequence (Q03530 whole entry, looked up): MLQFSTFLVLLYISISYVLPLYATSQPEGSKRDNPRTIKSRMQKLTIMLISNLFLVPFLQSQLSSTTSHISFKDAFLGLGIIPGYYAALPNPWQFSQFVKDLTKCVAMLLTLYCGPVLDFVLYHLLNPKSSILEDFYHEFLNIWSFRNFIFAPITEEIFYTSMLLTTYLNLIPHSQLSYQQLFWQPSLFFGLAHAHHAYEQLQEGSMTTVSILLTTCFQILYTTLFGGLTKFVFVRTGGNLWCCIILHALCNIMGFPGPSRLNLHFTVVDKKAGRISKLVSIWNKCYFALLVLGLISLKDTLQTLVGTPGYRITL

Row | Compound | AC50
1 | COC(C/C=C\C(=O)[C@H](C)OCc1ccccc1)OC | > 10 µM (inactive)

same assay, conditions: Rce1p enzyme activity, at 10 µM (top of the series)

Row | Compound | activity change, negative = inhibition
2 | CCOC(=O)c1c(-c2ccc(OC)cc2)oc2ccc(OC(=O)N(C)C)cc12 | inactive
3 | CSc1nc(NCC(C)O)c2c3c(sc2n1)CN(C)CC3 (stereo unspecified) | inactive
4 | COc1ccccc1NC(=O)/C(=C\c1cccnc1)NC(=O)c1ccc(C)cc1 | inactive
5 | COCCNc1nc(N)c([N+](=O)[O-])c(N2CCCCCC2)n1 | inactive
6 | O=C(Nc1ccccc1)n1ccc(-c2ccc(-n3ccnc3)cc2)n1 | inactive
7 | CCN(Cc1ccccc1)c1ccc(/C=N/N=C(N)N)cc1 | inactive
8 | CC(C)CNC(=O)Nc1ccc(F)c(Cl)c1 | inactive
9 | CCN(CC)c1ccc(C(=O)c2ccccc2C(=O)O)c(O)c1 | inactive
10 | Cc1cc(C)cc(N2CC(O)=C(c3nc4ccccc4c(=O)[nH]3)C2=N)c1 | inactive
11 | CC(=O)OCC(=O)[C@@]12OC3(CCCC3)O[C@@H]1C[C@H]1[C@@H]3CCC4=CC(=O)C=C[C@]4(C)[C@@]3(F)[C@@H](O)C[C@@]12C | inactive
12 | CCC1CCCCN1C(=O)NC(=O)c1ccccc1 (stereo unspecified) | inactive
13 | CCOC(=O)c1c(-c2ccccc2)oc2ccc(OCC(O)CNCCN(C)C)cc12 (stereo unspecified) | inactive
14 | C=CCc1cccc(/C=N/NC(=O)COc2ccc(-n3cnnn3)cc2)c1O | inactive
15 | COC(C/C=C/[C@H](O)[C@H](C)OCc1ccccc1)OC | inactive
16 | COc1cccc(-c2nc(C#N)c(N3CCN(C(=O)c4ccco4)CC3)o2)c1 | inactive
17 | O=S(=O)(c1ccccc1)c1cnn2c(C(F)(F)F)cc(-c3ccc(F)cc3)nc12 | inactive
18 | O=C(CN1CCC(NC(=O)c2ccc(Br)cc2)CC1)NCc1cccs1 | inactive
19 | COc1ccc(C)c2sc(NC(=O)C3=COCCO3)nc12 | inactive
20 | CCOC(=O)c1c(C2COc3ccccc3O2)csc1NC(=O)c1ccccc1 (stereo unspecified) | inactive
21 | Cc1ccc(NS(=O)(=O)c2ccc(NC(=O)N3CCCCC3)cc2)cc1 | inactive
22 | CCN(CC)CCNC(=O)CSc1c2c(nc3cc(Cl)ccc13)CCCC2 | inactive
23 | O=C1NC(c2ccc(Br)cc2)Nc2ccccc21 (stereo unspecified) | inactive
24 | CCNC(=S)NNC(=O)CCn1cc(C)cn1 | inactive

Row | Compound | activity change, negative = inhibition
25 | Cn1c(CN2CCOCC2)c(C#N)c2ccccc21 | inactive
26 | COc1cc2c(cc1OC)C(C)N(C(=O)CCNC(=O)c1ccccc1)CC2 (stereo unspecified) | inactive
27 | COc1ccc(-c2nc3ncccc3o2)cc1NC(=O)c1ccco1 | inactive
28 | CC(C)[C@H](NC(=O)OCc1ccccc1)C(=O)OCC(=O)Nc1c(F)cccc1F | inactive
29 | CCCCn1c(=O)c(-c2ccccc2)c(O)c2ccccc21 | inactive
30 | Cn1c(=O)c(C(=O)NCCO)c(O)c2ccccc21 | inactive
31 | COc1cc(NC(=O)C/C(C)=N/NC(=O)c2cccc(O)c2)c(OC)cc1Cl | inactive
32 | Cc1ccc(S(=O)(=O)c2cn(C)c3cc(N4CCOCC4)c(F)cc3c2=O)cc1 | inactive
33 | CN(C)CCNc1ncnc2oc(-c3ccccc3)c(-c3ccccc3)c12 | inactive
34 | NC(N)=NC(=O)c1nc(Cl)c(N)nc1N | inactive
35 | Cc1cc(C)n(-c2nc3ccccc3c(=O)n2OCC(=O)N(C)C)n1 | inactive
36 | OC1CCN(C(c2ccc3ncccc3c2)c2nnnn2C2CCCCC2)CC1 (stereo unspecified) | inactive
37 | CC1=C(C(=O)N2CCOCC2)C(c2ccccc2F)C2=C(CC(C)(C)CC2=O)N1 (stereo unspecified) | inactive
38 | CC(C)C(NC(=O)c1ccco1)C(=O)NCC(c1ccco1)N1CCCCC1 (stereo unspecified) | inactive
39 | c1ccc(C[n+]2cccc3c4ccccc4ccc32)cc1 | inactive
40 | CCN(CC)CCCNC(=O)CCc1c(C)n(CC)c2cc(-c3ccccc3OC)nn2c1=O | inactive
41 | Nc1nc2n[nH]nc2c(=O)[nH]1 | inactive
42 | CCCCn1c(=O)[nH]c(=O)c2c1nc(-c1ccc(OC)c(Br)c1)n2CC(C)C | inactive
43 | CN1C(=O)c2ccccc2N(C)C1c1ccccc1Cl (stereo unspecified) | inactive
44 | C/C(CC(=O)NCc1ccco1)=N\NC(=O)c1ccc([N+](=O)[O-])cc1Cl | inactive
45 | N#CC(/C(=N/S(=O)(=O)c1cccs1)c1ccccc1)c1nc2ccccc2[nH]1 (stereo unspecified) | inactive
46 | COC(=O)C(Cc1ccccc1)OS(N)(=O)=O (stereo unspecified) | inactive
47 | CCOC(=O)c1sc2nc(C3CC3)cc(-c3ccc(OC)cc3)c2c1N | inactive

Row | Compound | activity change, negative = inhibition
48 | COc1ccc(C)cc1NC(=O)CN1C(=O)COc2ccc(S(=O)(=O)N3CCOCC3)cc21 | inactive
49 | CC(=O)N[C@@H](C)c1nc2ccccc2n1CCCN1CCN(c2nc(-c3ccc(C)cc3)cs2)CC1 | inactive
50 | Cc1cc(C)n2nc(CC(=O)NNC(=O)c3ccc(N(C)C)cc3)nc2n1 | inactive
51 | COc1ccc(/C=C/c2nc3ccccc3n2C)cc1 | inactive
52 | O=C(O)c1ccc2cccc(Cl)c2c1O | inactive
53 | Cc1cccc(N2C(=O)c3cccc4c(N5CCCCC5)c([N+](=O)[O-])cc(c34)C2=O)c1C | inactive
54 | O=C1OCCN1C(=O)[C@H]1[C@H](c2ccc(F)cc2)C(c2ccc(F)cc2)=NN1c1ccc(Br)cc1 | inactive
55 | COc1ccccc1-c1cc(C(=O)O)c2c(=O)n(C)c(=O)n(Cc3ccccc3)c2n1 | inactive
56 | O=C(COc1ccccc1)Nc1cccc(-c2nc3cc4ccccc4cc3[nH]2)c1 | inactive
57 | Cc1cc(NS(=O)(=O)c2ccccc2)c([N+](=O)[O-])cc1C | inactive
58 | CC(=O)c1c(C)oc2ccc(NS(=O)(=O)c3ccc(C(=O)O)cc3)cc12 | inactive
59 | CCO[C@@H]1OC(C(=O)N2CCN(Cc3ccccc3)CC2)=C[C@H](c2ccccc2)[C@H]1CCCO | inactive
60 | CCn1cc(C(=O)NCCO)c(=O)c2cc(F)c(N3CCN(C)CC3)cc21 | inactive
61 | Cc1ccc(C(=O)c2c3ccccc3[n+]([O-])n2CCO)cc1 | inactive
62 | CCOC(=O)c1nnn2c1nc(N1CCOCC1)c1ccccc12 | inactive
63 | c1ccc(CCCN2CCN(CCOC(c3ccccc3)c3ccccc3)CC2)cc1 | inactive
64 | O=C(Nc1cc(Cl)cc(Cl)c1)c1coc(=O)c(Br)c1 | inactive
65 | CCOc1cc(-c2nc3c(C)cccn3c2NCC2CCCO2)ccc1O (stereo unspecified) | inactive
66 | COC(C[C@@H]1O[C@@H]1C(=O)[C@@H](C)OCc1ccccc1)OC | inactive
67 | O=C(Nc1ccc(F)cc1)Oc1ccccc1N1CCOCC1 | inactive
68 | O=C1CCCN1CC(O)CS(=O)(=O)c1ccccc1 (stereo unspecified) | inactive
69 | COc1ccccc1-n1c(-c2ccccc2)c[nH]c1=S | inactive
70 | CCn1nc(C)cc1C(=O)NC1CC(C)(C)Cc2c1cnn2-c1cccc(F)c1 (stereo unspecified) | inactive

Row | Compound | activity change, negative = inhibition
71 | Cc1c(CCC(=O)O)c(=O)oc2cc(OCc3cccc(F)c3)ccc12 | inactive
72 | COc1ccccc1NC(=O)CN(c1ccc(C23CC4CC(CC(C4)C2)C3)cc1)S(C)(=O)=O | inactive
73 | Cn1c(CCNS(=O)(=O)c2ccccc2)nnc1SCc1cccnc1 | inactive
74 | CCOc1ccc(N(CC(=O)NC2CC3CCC2C3)S(=O)(=O)c2ccccc2)cc1 (stereo unspecified) | inactive
75 | CCOC(=O)c1ccc(NC(=O)N2CCN(Cc3ccccc3)CC2)cc1 | inactive
76 | CCc1ccc(NC(=O)c2cnc(N3CCN(c4ccccn4)CC3)c3ccccc23)cc1 | inactive
77 | COc1ccc(S(=O)(=O)NCC2CCCO2)cc1NC(=O)c1ccccc1F (stereo unspecified) | inactive
78 | Cc1ccc(S(=O)(=O)CC(=O)N2CCN(c3ccccc3F)CC2)cc1 | inactive
79 | CCN(C(=O)COC(=O)c1cc(-c2cccs2)nc2ccccc12)C1CCS(=O)(=O)C1 (stereo unspecified) | inactive
80 | CCc1nnc(NC(=O)c2ccc(NS(=O)(=O)c3ccccc3)cc2)s1 | inactive
81 | O=C(Nc1cc(S(=O)(=O)N2CCCCC2)ccc1Cl)c1ccccc1NS(=O)(=O)c1ccc(F)cc1 | inactive
82 | N=C(N)c1ccc(/C=C/c2ccc(C(=N)N)cc2O)cc1 | inactive
83 | CCC(=O)Nc1cccc(NC(=S)NC(=O)c2cccs2)c1 | inactive
84 | Cc1ccc(-c2cc3cccc[n+]3cc2-c2ccc(C)cc2)cc1 | inactive
85 | CC1=CC2=NC(=O)CC(C)(C(=O)N(CC(=O)NC3CCCC3)Cc3ccccc3)N2C=C1 (stereo unspecified) | inactive
86 | COC(=O)c1sccc1NC(=O)CSc1nnnn1-c1ccccc1C | inactive
87 | Nc1ccccc1Oc1ccc2ccccc2c1 | inactive
88 | Cc1cc2cc(C(=O)N3CCc4c([nH]c5ccccc45)C3c3ccccn3)ccc2o1 (stereo unspecified) | inactive
89 | COc1ccc(OC)c(/C=N/c2c(-c3ccc(O)c(OC)c3)nc3ccccn23)c1 | inactive
90 | CC1CCc2c(sc(NC(=O)COC(=O)c3ccccc3NCc3ccco3)c2C#N)C1 (stereo unspecified) | inactive
91 | CCCCNC(=S)NNC(=O)CCn1cc(C)cn1 | inactive
